Patent publication US8178506B2, “Oligomeric compounds and compositions for use in modulation of small non-coding RNAs” (Regulus Therapeutics Inc., priority 2003, dated 2012)
In the oligonucleotide strings, read from the 5' end, every base follows the letter of its sugar. An asterisk marks phosphorothioate; unmarked linkages are phosphodiester. Other units and linkages are bracketed, terminal groups are in braces. A string of capitals states the bases alone. e = 2'-O-(2-methoxyethyl) (MOE); [5mC] = 5-methylcytosine

What was measured:
Assay type in all cases: cell-based, human
aP2 = aP2 mRNA expression in adipocytes (real-time PCR); conditions: for aP2 mRNA: differentiating adipocytes transfected with oligomeric compound, Table 75; for AP2 mRNA: differentiating adipocytes, control = treatment with ISIS 342673
HSL = HSL mRNA expression in adipocytes (real-time PCR)
Glut4 = Glut4 mRNA expression in adipocytes (real-time PCR)
adipocytes = assay: Triglyceride accumulation assay in adipocytes
PPARγ = PPARγ mRNA expression in adipocytes (real-time PCR)
[1] = differentiating adipocytes transfected with oligomeric compound, Table 75
[2] = Table 18, differentiating adipocytes, control = treatment with ISIS 342673
[3] = Table 17, differentiating adipocytes, control = treatment with ISIS 342673

344268 (antisense ACACAAAUUCGGUUCUACAGGG; all 2'-MOE, all phosphorothioate, methylation of C and T or U not given here) [compound 344268]
aP2 mRNA (aP2): 46 percentage of untreated control (UTC)
HSL mRNA (HSL; [1]): 44 percentage of untreated control (UTC)
GLUT4 mRNA (Glut4; [1]): 22 percentage of untreated control (UTC)
TG (triglyceride accumulation) (adipocytes; [1]): 57 percentage of untreated control (UTC)
PPAR gamma mRNA (PPARγ; [1]): 53 percentage of untreated control (UTC)

341799 (antisense ACCUAAUAUAUCAAACAUAUCA; all 2'-MOE, all phosphorothioate, methylation of C and T or U not given here) [compound 341799]
aP2 mRNA (aP2): 101 percentage of untreated control (UTC)
HSL mRNA (HSL; [1]): 103 percentage of untreated control (UTC)
GLUT4 mRNA (Glut4; [1]): 89 percentage of untreated control (UTC)
TG (triglyceride accumulation) (adipocytes; [1]): 98 percentage of untreated control (UTC)
PPAR gamma mRNA (PPARγ; [1]): 89 percentage of untreated control (UTC)

344341 (CACAUGGUUAGAUCAAGCACAA; anti-miR; all 2'-MOE, all phosphorothioate, methylation of C and T or U not given here) [compound 344341]
aP2 mRNA (aP2): 42 percentage of untreated control (UTC)
HSL mRNA (HSL; [1]): 33 percentage of untreated control (UTC)
GLUT4 mRNA (Glut4; [1]): 14 percentage of untreated control (UTC)
TG (triglyceride accumulation) (adipocytes; [1]): 50 percentage of untreated control (UTC)
PPAR gamma mRNA (PPARγ; [1]): 49 percentage of untreated control (UTC)

340356 (antisense CUCAAUAGACUGUGAGCUCCUU; all 2'-MOE, all phosphorothioate, methylation of C and T or U not given here) [compound 340356]
aP2 mRNA (aP2): 73 percentage of untreated control (UTC)
HSL mRNA (HSL; [1]): 59 percentage of untreated control (UTC)
GLUT4 mRNA (Glut4; [1]): 54 percentage of untreated control (UTC)
TG (triglyceride accumulation) (adipocytes; [1]): 43 percentage of untreated control (UTC)
PPAR gamma mRNA (PPARγ; [1]): 62 percentage of untreated control (UTC)

346917 (CAGCUAUGCCAGCAUCUUGCCU; all 2'-MOE, all phosphorothioate, methylation of C and T or U not given here) [compound 346917]
aP2 mRNA (aP2): 33 percentage of untreated control (UTC)
HSL mRNA (HSL; [1]): 27 percentage of untreated control (UTC)
GLUT4 mRNA (Glut4; [1]): 20 percentage of untreated control (UTC)
TG (triglyceride accumulation) (adipocytes; [1]): 39 percentage of untreated control (UTC)
PPAR gamma mRNA (PPARγ; [1]): 31 percentage of untreated control (UTC)

346693 (CCCUCUGGUCAACCAGUCACA; all 2'-MOE, all phosphorothioate, methylation of C and T or U not given here) [compound 346693]
aP2 mRNA (aP2): 77 percentage of untreated control (UTC)
HSL mRNA (HSL; [1]): 66 percentage of untreated control (UTC)
GLUT4 mRNA (Glut4; [1]): 65 percentage of untreated control (UTC)
TG (triglyceride accumulation) (adipocytes; [1]): 69 percentage of untreated control (UTC)
PPAR gamma mRNA (PPARγ; [1]): 81 percentage of untreated control (UTC)

346920 (AGCAAAAAUGUGCUAGUGCCAAA; all 2'-MOE, all phosphorothioate, methylation of C and T or U not given here) [compound 346920]
aP2 mRNA (aP2): 70 percentage of untreated control (UTC)
HSL mRNA (HSL; [1]): 53 percentage of untreated control (UTC)
GLUT4 mRNA (Glut4; [1]): 61 percentage of untreated control (UTC)
TG (triglyceride accumulation) (adipocytes; [1]): 63 percentage of untreated control (UTC)
PPAR gamma mRNA (PPARγ; [1]): 70 percentage of untreated control (UTC)

328106 (antisense eA*eT*eT*eG*eA*eT*eG*e[5mC]*eG*e[5mC]*e[5mC]*eA*eT*eT*eT*eG*eG*e[5mC]*e[5mC]*eT*eA) [compound 328106]
AP2 mRNA (aP2; Table 18): 88.8 percentage of control
aP2 mRNA (aP2): 91 percentage of untreated control (UTC)
HSL mRNA (HSL; [2]): 94.9 percentage of control
HSL mRNA (HSL; [1]): 86 percentage of untreated control (UTC)
GLUT4 mRNA (Glut4; [2]): 105.7 percentage of control
GLUT4 mRNA (Glut4; [1]): 79 percentage of untreated control (UTC)
TG (triglyceride accumulation) (adipocytes; [2]): 90.5 percentage of control
TG (triglyceride accumulation) (adipocytes; [1]): 70 percentage of untreated control (UTC)
PPAR gamma mRNA (PPARγ; [2]): 90.7 percentage of control
PPAR gamma mRNA (PPARγ; [1]): 81 percentage of untreated control (UTC)

328094 (antisense eT*eT*eG*eT*eA*eA*eG*e[5mC]*eA*eG*eT*eT*eT*eT*eG*eT*eT*eG*eA*e[5mC]*eA) [compound 328094]
aP2 mRNA (aP2): 68 percentage of untreated control (UTC)
HSL mRNA (HSL; [1]): 74 percentage of untreated control (UTC)
GLUT4 mRNA (Glut4; [1]): 83 percentage of untreated control (UTC)
TG (triglyceride accumulation) (adipocytes; [1]): 65 percentage of untreated control (UTC)
PPAR gamma mRNA (PPARγ; [1]): 94 percentage of untreated control (UTC)

346907 (AUGUAUGUGGGACGGUAAACCA; all 2'-MOE, all phosphorothioate, methylation of C and T or U not given here) [compound 346907]
aP2 mRNA (aP2): 50 percentage of untreated control (UTC)
HSL mRNA (HSL; [1]): 36 percentage of untreated control (UTC)
GLUT4 mRNA (Glut4; [1]): 37 percentage of untreated control (UTC)
TG (triglyceride accumulation) (adipocytes; [1]): 47 percentage of untreated control (UTC)
PPAR gamma mRNA (PPARγ; [1]): 51 percentage of untreated control (UTC)

328135 (eA*e[5mC]*e[5mC]*eG*eA*eA*e[5mC]*eA*eA*eA*eG*eT*e[5mC]*eT*eG*eA*e[5mC]*eA*eG*eG*eA; anti-miR) [compound 328135]
AP2 mRNA (aP2; Table 17): 80.6 percentage of control
aP2 mRNA (aP2): 34 percentage of untreated control (UTC)
HSL mRNA (HSL; [3]): 76.7 percentage of control
HSL mRNA (HSL; [1]): 20 percentage of untreated control (UTC)
GLUT4 mRNA (Glut4; [3]): 90.3 percentage of control
GLUT4 mRNA (Glut4; [1]): 19 percentage of untreated control (UTC)
TG (triglyceride accumulation) (adipocytes; [3]): 63.6 percentage of control
TG (triglyceride accumulation) (adipocytes; [1]): 29 percentage of untreated control (UTC)
PPAR gamma mRNA (PPARγ; [3]): 70.0 percentage of control
PPAR gamma mRNA (PPARγ; [1]): 33 percentage of untreated control (UTC)

346921 (AACAACCAGCUAAGACACUGCCA; all 2'-MOE, all phosphorothioate, methylation of C and T or U not given here) [compound 346921]
aP2 mRNA (aP2): 69 percentage of untreated control (UTC)
HSL mRNA (HSL; [1]): 49 percentage of untreated control (UTC)
GLUT4 mRNA (Glut4; [1]): 51 percentage of untreated control (UTC)
TG (triglyceride accumulation) (adipocytes; [1]): 52 percentage of untreated control (UTC)
PPAR gamma mRNA (PPARγ; [1]): 62 percentage of untreated control (UTC)

328134 (eA*eA*eT*eT*eG*eG*eA*e[5mC]*eA*eA*eA*eG*eT*eG*e[5mC]*e[5mC]*eT*eT*eT*e[5mC]*eA; anti-miR) [compound 328134]
AP2 mRNA (aP2; Table 17): 80.1 percentage of control
aP2 mRNA (aP2): 97 percentage of untreated control (UTC)
HSL mRNA (HSL; [3]): 74.7 percentage of control
HSL mRNA (HSL; [1]): 109 percentage of untreated control (UTC)
GLUT4 mRNA (Glut4; [3]): 88.3 percentage of control
GLUT4 mRNA (Glut4; [1]): 109 percentage of untreated control (UTC)
TG (triglyceride accumulation) (adipocytes; [3]): 85.7 percentage of control
TG (triglyceride accumulation) (adipocytes; [1]): 107 percentage of untreated control (UTC)
PPAR gamma mRNA (PPARγ; [3]): 78.4 percentage of control
PPAR gamma mRNA (PPARγ; [1]): 86 percentage of untreated control (UTC)

328118 (antisense eT*eA*eT*eT*eA*eT*e[5mC]*eA*eG*e[5mC]*eA*eT*e[5mC]*eT*eG*e[5mC]*eT*eT*eG*e[5mC]*eA) [compound 328118]
AP2 mRNA (aP2; Table 17): 92.7 percentage of control
aP2 mRNA (aP2): 74 percentage of untreated control (UTC)
HSL mRNA (HSL; [3]): 85.3 percentage of control
HSL mRNA (HSL; [1]): 67 percentage of untreated control (UTC)
GLUT4 mRNA (Glut4; [3]): 76.6 percentage of control
GLUT4 mRNA (Glut4; [1]): 57 percentage of untreated control (UTC)
TG (triglyceride accumulation) (adipocytes; [3]): 69.3 percentage of control
TG (triglyceride accumulation) (adipocytes; [1]): 69 percentage of untreated control (UTC)
PPAR gamma mRNA (PPARγ; [3]): 80.2 percentage of control
PPAR gamma mRNA (PPARγ; [1]): 72 percentage of untreated control (UTC)

344277 (antisense AAUACAUACUUCUUUACAUUCCA; all 2'-MOE, all phosphorothioate, methylation of C and T or U not given here) [compound 344277]
aP2 mRNA (aP2): 61 percentage of untreated control (UTC)
HSL mRNA (HSL; [1]): 57 percentage of untreated control (UTC)
GLUT4 mRNA (Glut4; [1]): 45 percentage of untreated control (UTC)
TG (triglyceride accumulation) (adipocytes; [1]): 75 percentage of untreated control (UTC)
PPAR gamma mRNA (PPARγ; [1]): 68 percentage of untreated control (UTC)
